Data from patent US20240376097A1, “BCL-2 Inhibitor” (BeiGene Ltd., priority 2020, published 2024).
Where two headings read alike, the source gives them in different places.

Key:
[1] = system: BCL-2 G101V knock-in cell line H96 (derive from RS4;11); test: Bcl 2-G101V Knock-In RS4;11 Cell Proliferation Assay; format: cell-based; settings: Homo sapiens, RS4;11 Bcl-2 G101V knock-in clone H96, 48 hrs, CellTiter-GLO, read-out: Cellular proliferation assay (IC50, nM) RS4
Summary of the method: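 CellTiter-Glo luminescence after 48 h, 37 °C compound treatment (10 concentrations, maximum 1 μM or 10 μM) gave mean IC50 values. Cells were 50,000 per well of H96, a BCL2-G101V knock-in single clone derived from RS4;11 by Cas9 editing.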

[2] = system: RS4;11 (BCL-2 dependent acute lymphoblastic leukemia cell line); test: RS4;11 Cell Proliferation Assay; format: cell-based; settings: Homo sapiens, RS4-11, RS4;11 cells, read-out: Cellular proliferation assay (IC50, nM) RS4
Summary of the method: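 Viability measured via CellTiter-Glo luminescence after a 48 h, 37 °C exposure to compounds (10 points, highest 1 μM). Seeding was 50,000 RS4;11 cells per well in 10% FBS RPMI-1640; IC50 given as mean.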

[3] = target: recombinant human Bcl-2 D103Y protein (Homo sapiens (Human), UniProt P10415, D103Y); test: Bcl-2-D103Y Biochemical Assay (TR-FRET); format: binding; settings: for IC50: TR-FRET, FITC labeled Bak peptide; for Ratio of Bcl-2 D103Y/Bcl-2 WT: ratio of IC50
Summary of the method: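 Compounds titrated against the Bcl-2 D103Y–ligand interaction; inhibition derived from the TR-FRET emission ratio 490 nm/520 nm after 337 nm excitation. Four-parameter logistic fitting gave IC50.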

[4] = target: Recombinant human Bcl-2 protein (Homo sapiens (Human), UniProt P10415); test: Bcl-2 TR-FRET Assay; format: binding
Summary of the method: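 TR-FRET read (337 nm excitation, 520/490 nm emission) after 1 h with 0.5 nM FITC-labeled Bak peptide and Tb-cryptate anti-6His antibody. Bcl-2 at 0.05 nM had been pre-incubated 0.5 h with compound. IC50 fitted by four-parameter logistic equation.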

[5] = target: recombinant human Bcl-2-G101V protein (Homo sapiens (Human), UniProt P10415, G101V); test: Bcl-2-G101V TR-FRET Assay; format: binding; settings: Bcl-2 G101V mutant, TR-FRET; read-out: Biochemical assay (IC50, nM) Bcl-2 G101V
Summary of the method: (§1)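 Compounds were titrated at increasing concentrations against the Bcl-2-G101V–ligand interaction. TR-FRET signals were then read (ex 337 nm; em 490/520 nm). Percent inhibition was derived from the 490-to-520 nm ratio, and IC50 from a four-parameter logistic equation.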

[6] = system: recombinant human Bcl-2-G101V protein; test: Bcl-2-G101V TR-FRET Assay; format: binding; settings: ratio of biochemical IC50 Bcl-2 G101V / Bcl-2 WT
Summary of the method: as §1

[7] = Bcl-2 wild type, TR-FRET, read-out: Biochemical assay (IC50, nM) Bcl-2 WT
[8] = wild type Bcl-2, unit inferred, read-out: Bcl-2 WT

| Structure (SMILES) | IC50 [1] | IC50 [2] | IC50 [3] | Ratio of Bcl-2 D103Y/Bcl-2 WT [3] | IC50 [4, 7] | IC50 [4, 8] | IC50 [5] | Ratio of Bcl-2 G101V/WT [6] |
| --- | --- | --- | --- | --- | --- | --- | --- | --- |
| COc1cc(CN2CCN(C3CC4(CCN(c5ccc(C(=O)NS(=O)(=O)c6ccc(NC[C@H]7CC[C@](C)(O)CC7)c([N+](=O)[O-])c6)c(Oc6cnc7[nH]ccc7c6)c5)CC4)C3)[C@H](c3ccccc3C(C)C)C2)ccc1C(F)F [Example 288, 2-((1H-pyrrolo[2,3-b]pyridin-5-yl)oxy)-4-(2-((R)-4-(4-(difluoromethyl)-3-methoxybenzyl)-2-(2-isopropylphenyl)piperazin-1-yl)-7-azaspiro[3.5]nonan-7-yl)-N-((4-((((1r,4r)-4-hydroxy-4-methylcyclohexyl)methyl)amino)-3-nitrophenyl)sulfonyl)benzamide] | 0.87 nM | 0.19 nM | 0.43 nM | 0.84 | 0.52 nM | 0.52 nM | 1.3 nM | 2.5 |
| COc1cc(CN2CCN(C3CC4(CCN(c5ccc(C(=O)NS(=O)(=O)c6ccc(NC[C@H]7CC[C@](C)(O)CC7)c([N+](=O)[O-])c6)c(Oc6cnc7[nH]ccc7c6)c5)CC4)C3)C(c3ccccc3C(C)C)C2)ccc1F (stereo partly drawn) [Example 121, 2-((1H-pyrrolo[2,3-b]pyridin-5-yl)oxy)-4-(2-(4-(4-fluoro-3-methoxybenzyl)-2-(2-isopropylphenyl)piperazin-1-yl)-7-azaspiro[3.5]nonan-7-yl)-N-((4-((((1r,4r)-4-hydroxy-4-methylcyclohexyl)methyl)amino)-3-nitrophenyl)sulfonyl)benzamide] | 1.13 nM | 0.24 nM | 0.42 nM | 1.5 | 0.28 nM | 0.28 nM | 1.1 nM | 3.8 |
| COc1cc(CN2CCN(C3CC4(CCN(c5ccc(C(=O)NS(=O)(=O)c6ccc(NC[C@H]7CC[C@](C)(O)CC7)c([N+](=O)[O-])c6)c(Oc6cnc7[nH]ccc7c6)c5)CC4)C3)[C@H](c3ccccc3C(C)C)C2)ccc1C [Example 260, 2-((1H-pyrrolo[2,3-b]pyridin-5-yl)oxy)-N-((4-((((1r,4r)-4-hydroxy-4-methylcyclohexyl)methyl)amino)-3-nitrophenyl)sulfonyl)-4-(2-((R)-2-(2-isopropylphenyl)-4-(3-methoxy-4-methylbenzyl)piperazin-1-yl)-7-azaspiro[3.5]nonan-7-yl)benzamide] | 0.33 nM | 0.13 nM | 0.27 nM | 1.1 | 0.34 nM | 0.24 nM | 0.75 nM | 2.2 |
| COc1ccc(CN2CCN(C3CC4(C3)CN(c3ccc(C(=O)NS(=O)(=O)c5ccc(NC[C@H]6CC[C@](C)(O)CC6)c([N+](=O)[O-])c5)c(Oc5cnc6[nH]cc(F)c6c5)c3)C4)[C@H](c3ccccc3C(C)C)C2)cn1 [Example 215, 2-((3-fluoro-1H-pyrrolo[2,3-b]pyridin-5-yl)oxy)-N-((4-((((1r,4r)-4-hydroxy-4-methylcyclohexyl)methyl)amino)-3-nitrophenyl)sulfonyl)-4-(6-((R)-2-(2-isopropylphenyl)-4-((6-methoxypyridin-3-yl)methyl)piperazin-1-yl)-2-azaspiro[3.3]heptan-2-yl)benzamide] | 0.29 nM | 0.11 nM | 0.062 nM | 1.1 | 0.057 nM | 0.057 nM | 0.14 nM | 2.5 |
| CC(C)c1ccccc1C1CN(Cc2ccccn2)CCN1C1CC2(CCN(c3ccc(C(=O)NS(=O)(=O)c4ccc(NC[C@H]5CC[C@](C)(O)CC5)c([N+](=O)[O-])c4)c(Oc4cnc5[nH]ccc5c4)c3)CC2)C1 (stereo partly drawn) [Example 131] | 4.34 nM | 0.57 nM | 0.29 nM | 5.7 | 0.05 nM | 0.05 nM | 0.51 nM | 10 |
| CCc1ccc(CN2CCN(C3CC4(C3)CN(c3ccc(C(=O)NS(=O)(=O)c5ccc(NC[C@H]6CC[C@](C)(O)CC6)c([N+](=O)[O-])c5)c(Oc5cnc6[nH]cc(F)c6c5)c3)C4)[C@H](c3ccccc3C(C)C)C2)cc1OC [Example 268, 4-(6-((R)-4-(4-ethyl-3-methoxybenzyl)-2-(2-isopropylphenyl)piperazin-1-yl)-2-azaspiro[3.3]heptan-2-yl)-2-((3-fluoro-1H-pyrrolo[2,3-b]pyridin-5-yl)oxy)-N-((4-((((1r,4r)-4-hydroxy-4-methylcyclohexyl)methyl)amino)-3-nitrophenyl)sulfonyl) benzamide] | 0.25 nM | 0.1 nM | 0.88 nM | 1.1 | 0.79 nM | 0.79 nM | 1.3 nM | 1.6 |
| COc1cc(CN2CCN(C3CC4(CCN(c5ccc(C(=O)NS(=O)(=O)c6ccc(NC[C@H]7CC[C@](C)(O)CC7)c([N+](=O)[O-])c6)c(Oc6cnc7[nH]ccc7c6)c5)CC4)C3)C(c3ccccc3C(C)C)C2)cnc1OC (stereo partly drawn) [Example 176, 2-((1H-pyrrolo[2,3-b]pyridin-5-yl)oxy)-4-(2-(4-((5,6-dimethoxypyridin-3-yl)methyl)-2-(2-isopropylphenyl)piperazin-1-yl)-7-azaspiro[3.5]nonan-7-yl)-N-((4-((((1r,4r)-4-hydroxy-4-methylcyclohexyl)methyl)amino)-3-nitrophenyl)sulfonyl)benzamide] | 1 nM | 0.39 nM | 0.061 nM | 1.7 | 0.035 nM | 0.035 nM | 0.15 nM | 4.3 |
| COc1ccc(CN2CCN(C3CC4(CCN(c5ccc(C(=O)NS(=O)(=O)c6ccc(OCC7CCC(C)(O)CC7)c([N+](=O)[O-])c6)c(Oc6cnc7[nH]ccc7c6)c5)CC4)C3)[C@H](c3ccccc3C(C)C)C2)cc1 (stereo partly drawn) [Example 236, (R)-2-((1H-pyrrolo[2,3-b]pyridin-5-yl)oxy)-N-((4-((4-hydroxy-4-methylcyclohexyl)methoxy)-3-nitrophenyl)sulfonyl)-4-(2-(2-(2-isopropylphenyl)-4-(4-methoxybenzyl)piperazin-1-yl)-7-azaspiro[3.5]nonan-7-yl)benzamide] | 0.8 nM | 0.16 nM | 0.22 nM | 1.3 | 0.16 nM | 0.16 nM | 0.56 nM | 3.5 |
| COc1cc(CN2CCN(C3CC4(C3)CN(c3ccc(C(=O)NS(=O)(=O)c5ccc(NC[C@H]6CC[C@](C)(O)CC6)c([N+](=O)[O-])c5)c(Oc5cnc6[nH]ccc6c5)c3)C4)[C@H](c3ccccc3C(C)C)C2)cc2c1OCC2(C)C [Example 296, 2-((1H-pyrrolo[2,3-b]pyridin-5-yl)oxy)-N-((4-((((1r,4r)-4-hydroxy-4-methylcyclohexyl)methyl)amino)-3-nitrophenyl)sulfonyl)-4-(6-((R)-2-(2-isopropylphenyl)-4-((7-methoxy-3,3-dimethyl-2,3-dihydrobenzofuran-5-yl)methyl)piperazin-1-yl)-2-azaspiro[3.3]heptan-2-yl)benzamide] | 0.55 nM | 0.24 nM | 0.14 nM | 1.1 | 0.13 nM | 0.13 nM | 0.28 nM | 2.1 |
